Measurements: publication doi:10.1101/2021.07.28.21261232v1 (medrxiv, 2021)

How the values were obtained:
Human Thrombin = Human Thrombin (Homo sapiens, UniProt P00734)
Bovine Chymotrypsin = Bovine Chymotrypsin (Bos taurus, UniProt P00766)
Human Elastase = settings: pH 8.0, room temperature, 50 mM Tris, 100 mM NaCl, Brij 35
in vitro = settings: human, microsomes

Row | Compound | IC50 (Human Thrombin) | IC50 (Bovine Chymotrypsin) | IC50 (Human Elastase) | microsomal CLint (in vitro)
1 | CC(C)(C)[C@H](NC(=O)C(F)(F)F)C(=O)N1C[C@H]2[C@@H]([C@H]1C(=O)N[C@H](C#N)C[C@@H]1CCNC1=O)C2(C)C [compound 6, (1R,2S,5S)-N-{(1S)-1-Cyano-2-[(3S)-2-oxopyrrolidin-3-yl]ethyl}-6,6-dimethyl-3-[3-methyl-N-(trifluoroacetyl)-L-valyl]-3-azabicyclo[3.1.0]hexane-2-carboxamide] | > 100 µM | > 100 µM | > 100 µM | –
2 | COc1cccc2[nH]c(C(=O)N[C@@H](CC(C)C)C(=O)N[C@@H](C[C@@H]3CCNC3=O)C(=O)CO)cc12 [compound 1, PF-00835231] | – | – | – | 7.47 ± 0.88 µL/min/mg
3 | CC(C)[C@H](NS(C)(=O)=O)C(=O)N1C[C@H]2[C@@H]([C@H]1C(=O)N[C@@H](C[C@@H]1CCNC1=O)C(=O)c1nc3ccccc3s1)C2(C)C [compound 4, (1R,2S,5S)-N-{(2S)-1-(1,3-Benzothiazol-2-yl)-1-oxo-3-[(3S)-2-oxopyrrolidin-3-yl]propan-2-yl}-6,6-dimethyl-3-[N-(methylsulfonyl)-L-valyl]-3-azabicyclo[3.1.0]hexane-2 carboxamide] | – | – | – | 127 ± 3 µL/min/mg
4 | COc1cccc2[nH]c(C(=O)N[C@@H](CC(C)C)C(=O)N[C@H](C#N)C[C@@H]3CCNC3=O)cc12 [compound 2, N-[(2S)-1-({(1S)-1-Cyano-2-[(3S)-2-oxopyrrolidin-3-yl]ethyl}amino)-4-methyl-1-oxopentan-2-yl]-4-methoxy-1H-indole-2-carboxamide] | – | – | – | 34.4 ± 0.7 µL/min/mg
